Holding throughout (experiment): NCI tumour cell line growth inhibition, 48 h
Test [1] concerns SF-295.
The subject of test [2] is T47D.
The test system of test [3] is UACC-62.
For test [4], the system named is SK-MEL-28.
The subject of test [5] is HCT-15.
For test [6], the system named is BT-549.
The subject of test [7] is RXF 393.
Test [8] has as its system MDA-MB-231.
Test [9] has as its system SF-268.
The subject of test [10] is A498.
Test [11] relates to SK-MEL-2.
The subject of test [12] is SK-OV-3.
Test [13] deals with HCT-116.
Test [14] has as its system 786-0.
For test [15], the system named is COLO 205.
Test [16] concerns HT-29.
The test system of test [17] is TK-10.
Test [18] has as its system MDA-MB-435.
The test system of test [19] is SR.
The test system of test [20] is OVCAR-4.

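Method: 48-hour compound exposure of cells in 96-well plates, five concentrations, linear interpolation of endpoints. GI50 marks 50% less growth.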 Active and inactive are the calls of the source. No stated cut-off is given here; in the data, active = GI50 up to about 1.1 µM and inactive = higher.

Take `COC(=O)Cc1c(C2=Nc3ccccc3C2(O)CC(=O)OC)[nH]c2ccccc12` (configuration not stated): the GI50 in test [1] was 45.8 µM (inactive); in test [2] it was 15.5 µM (inactive); in test [3], > 100 µM (inactive); in [4], 61.5 µM (inactive); in [5], 40.9 µM; in [6], > 100 µM (inactive). Moreover, the GI50 in test [7] was 97.9 µM (inactive); in test [8], 45.2 µM (inactive); in [9], > 100 µM (inactive); in [10] it was > 100 µM (inactive); in [11], > 100 µM (inactive); in test [12], > 100 µM (inactive). In addition, the GI50 was 31.8 µM (inactive) in [13]; 41.5 µM (inactive) in test [14]; 20.3 µM (inactive) in test [15]; > 100 µM (inactive) in test [16]; > 100 µM (inactive) in test [17]; > 100 µM (inactive) in [18].
Regarding `N=C(N)n1nc2c(c1O)CCC2`, the GI50 in test [1] was > 100 µM (inactive); in test [19], < 0.01 µM (active); in test [3], > 100 µM (inactive); in test [4], > 100 µM (inactive); in test [5], over 100 µM; in [6] it was > 100 µM (inactive). Also, the GI50 in [7], in test [8], in test [9], in test [11], in test [12] and in test [13] was > 100 µM (inactive) throughout. In addition, the GI50 in test [14], in test [15], in test [20], in [16], in [17] and in [18] was > 100 µM (inactive) each time.
In the case of `COc1cc(OC)c2c(=O)c(OC)c(-c3ccc4c(c3)OCO4)oc2c1OC`, the GI50 is 91.4 µM (inactive) in test [1]; 41.8 µM (inactive) in [2]; 98.9 µM (inactive) in test [3]; > 100 µM (inactive) in [4]; over 100 µM in test [5]; > 100 µM (inactive) in test [6]. The GI50 was > 100 µM (inactive) in [7]; 91.4 µM (inactive) in test [8]; > 100 µM (inactive) in test [9]; > 100 µM (inactive) in [10]; > 100 µM (inactive) in test [11]; > 100 µM (inactive) in test [12]. Besides, the GI50 in [13] is 83.9 µM (inactive); in [14], > 100 µM (inactive); in test [15], 53.6 µM (inactive); in test [16] it was > 100 µM (inactive); in [17] it was > 100 µM (inactive); in test [18], > 100 µM (inactive).
Take `CC(=O)CC1(O)C(=O)c2c(Br)sc(Br)c2C1=O`: the GI50 in [1] was > 100 µM (inactive); in test [2], 30.9 µM (inactive); in test [19], 21.1 µM (inactive); in [3], 21 µM (inactive); in test [4] it was 20.7 µM (inactive); in [5], 20.4 µM. Further, the GI50 in test [6] is 19 µM (inactive); in [7] it was 24.7 µM (inactive); in test [9], 30.2 µM (inactive); in [10], > 100 µM (inactive); in test [11], 22.2 µM (inactive); in test [12], 36.8 µM (inactive). Further, the GI50 was 19.8 µM (inactive) in test [13]; 23.7 µM (inactive) in test [14]; 18.7 µM (inactive) in test [15]; 18.6 µM (inactive) in [20]; 21.7 µM (inactive) in [16]; 25.9 µM (inactive) in [17]. Besides, the GI50 in [18] is 20 µM (inactive).
`Cc1ccc([N+](=O)[O-])c2c(NCC(O)CO)ccnc12` (configuration not stated): the GI50 is 42.1 µM (inactive) in test [1]; 49.7 µM (inactive) in test [2]; 95.1 µM (inactive) in test [19]; 30.3 µM (inactive) in test [3]; > 100 µM (inactive) in test [4]; 28.8 µM in test [5]. Also, the GI50 was 47 µM (inactive) in test [6]; 45.9 µM (inactive) in test [7]; 60.4 µM (inactive) in test [9]; 14.3 µM (inactive) in test [11]; > 100 µM (inactive) in [12]; 44.4 µM (inactive) in [13]. Further, the GI50 in [14] is 30.5 µM (inactive); in [15], 25.5 µM (inactive); in test [20], 52.8 µM (inactive); in test [16], 30.7 µM (inactive); in test [17], 48.2 µM (inactive); in test [18] it was 71.6 µM (inactive).
With `O=C(c1cc2ccccc2[nH]1)N1C2CCC1CN(CCOC(c1ccc(F)cc1)c1ccc(F)cc1)CC2` (configuration not stated), the GI50 in test [1] is 9.89 µM (inactive); in test [2] it was 5.28 µM (inactive); in [3], 52 µM (inactive); in [4] it was > 100 µM (inactive); in test [5], 3.24 µM; in test [6], > 100 µM (inactive). Besides, the GI50 was 3.97 µM (inactive) in [7]; 9.2 µM (inactive) in test [8]; 8.28 µM (inactive) in test [9]; > 100 µM (inactive) in [10]; 81.8 µM (inactive) in [11]; > 100 µM (inactive) in [12]. Moreover, the GI50 was 5.09 µM (inactive) in test [13]; > 100 µM (inactive) in test [14]; 5 µM (inactive) in [15]; > 100 µM (inactive) in [20]; 23.8 µM (inactive) in [16]; > 100 µM (inactive) in [17]. In addition, in test [18], the GI50 was > 100 µM (inactive).
On to `COC(=O)c1cc(C)ccc1CC(Cc1ccccc1C)C(=O)OC` (configuration not stated), for which the GI50 is 38.2 µM (inactive) in [1]; 26 µM (inactive) in test [2]; 27.5 µM (inactive) in [3]; 88.1 µM (inactive) in [4]; 21.4 µM in test [5]; 61.7 µM (inactive) in test [6]. Moreover, the GI50 was 26.9 µM (inactive) in [7]; 59.6 µM (inactive) in test [8]; 61.2 µM (inactive) in test [9]; 60.4 µM (inactive) in [10]; > 100 µM (inactive) in test [12]; 14.7 µM (inactive) in test [13]. The GI50 in [14] is 89.5 µM (inactive); in [15], 46.2 µM (inactive); in test [20], 29.7 µM (inactive); in test [16], 22 µM (inactive); in test [17] it was > 100 µM (inactive); in [18] it was 18.1 µM (inactive).
On to `O=C(NCCNCCCNC(=O)c1cc(-c2ccccc2)nc2ccccc12)c1cccc(O)c1O`, for which the GI50 is 1.84 µM (inactive) in [1]; 3.3 µM (inactive) in [2]; 2.27 µM (inactive) in test [3]; 1.72 µM (inactive) in [4]; 5.36 µM in test [5]; 2.56 µM (inactive) in test [6]. Also, the GI50 in [7] was 4.84 µM (inactive); in test [8], 4.23 µM (inactive); in test [9], 2.86 µM (inactive); in [10], 15.8 µM (inactive); in [11] it was 2.8 µM (inactive); in test [12], 6.11 µM (inactive). In addition, the GI50 in test [13] is 1.47 µM (inactive); in [14], 2.62 µM (inactive); in [15] it was 3.18 µM (inactive); in test [16], 4.88 µM (inactive); in test [17], 1.63 µM (inactive); in test [18] it was 2.51 µM (inactive).
`Oc1ccc(Cl)cc1/N=N\c1c(O)ccc2ccccc12`: the GI50 was > 100 µM (inactive) in [1]; > 100 µM (inactive) in test [19]; > 100 µM (inactive) in test [3]; > 100 µM (inactive) in test [4]; over 100 µM in test [5]; > 100 µM (inactive) in [6]. For the same compound, the GI50 in [7], in [8], in test [9], in [11], in [12] and in test [13] was > 100 µM (inactive) in each case. The GI50 in test [14], in test [15], in test [20], in test [16], in [17] and in test [18] was > 100 µM (inactive) throughout.
With `Cc1nnc(N2C(=O)C(=Cc3ccc(Cl)cc3)N=C2c2ccc(Cl)cc2)nc1/C=C\c1ccc(N(C)C)cc1`, the GI50 in test [1] is > 100 µM (inactive); in test [2], > 100 µM (inactive); in test [3], > 100 µM (inactive); in [4], > 100 µM (inactive); in test [5], over 100 µM; in test [6], > 100 µM (inactive). Besides, the GI50 in test [7], in [8], in test [9], in [10], in test [11] and in test [12] was > 100 µM (inactive) each time. Moreover, the GI50 in test [13], in [14], in [15], in test [20], in [16] and in test [17] was > 100 µM (inactive) each time. Besides, the GI50 in test [18] is > 100 µM (inactive).
`Nc1c(C(=O)c2ccc(Cl)cc2)[nH]c(NCc2ccccc2)c1C(=S)Nc1ccccc1`: the GI50 in [1] was 1.83 µM (inactive); in [2] it was 3.76 µM (inactive); in [3] it was 8.15 µM (inactive); in [4], 1.77 µM (inactive); in test [5] it was 1.79 µM; in test [6] it was 2.49 µM (inactive). Moreover, the GI50 in test [7] was 1.79 µM (inactive); in [8] it was 1.9 µM (inactive); in test [9] it was 3.03 µM (inactive); in [10], 9.98 µM (inactive); in test [11], 1.91 µM (inactive); in [12] it was 20.1 µM (inactive). Moreover, the GI50 in test [13] was 1.83 µM (inactive); in test [14] it was 1.72 µM (inactive); in [15] it was 11.5 µM (inactive); in [20], 1.66 µM (inactive); in [16], 1.94 µM (inactive); in test [17], 2.09 µM (inactive). For the same compound, the GI50 in [18] was 1.74 µM (inactive).
